# From the C3SDB collision cross section collection
# Conditions: instrument: TW, calibrated with phosphatidylcholines (ESI+) and phosphatidylethanolamines (ESI-)
collision cross section (N2) ([M-H]-) [Å²],collision cross section (N2) ([M+H]+) [Å²],SMILES,other results
303.3,–,CCCCCCCCC=CCC=CCC=CCC(=O)OC[C@H](CO[C@@H]1O[C@H](CO[C@H]2O[C@H](CO)[C@H](O)C(O)C2O)[C@H](O)C(O)C1O)OC(=O)CC=CCC=CCC=CCCCCCCCC (some centres undefined) [DGDG(18:3/18:3)],collision cross section (N2) ([M+CH3COO]-): 313.7 Å²; collision cross section (N2) ([M+Cl]-): 305.9 Å²; collision cross section (N2) ([M+K]+): 302.5 Å²; collision cross section (N2) ([M+NH4]+): 303.2 Å²; collision cross section (N2) ([M+Na]+): 301.9 Å²
–,–,CCCCCCCCCCCCCC=CCC(=O)OC[C@H](CO[C@@H]1O[C@H](CO[C@H]2O[C@H](CO)[C@H](O)C(O)C2O)[C@H](O)C(O)C1O)OC(=O)CC=CCCCCCCCCCCCCC (some centres undefined) [DGDG(34:2)],collision cross section (N2) ([M+NH4]+): 309 Å²; collision cross section (N2) ([M+Na]+): 305.2 Å²
–,–,CCCCCCCCCCCCCCC=CCC(=O)O[C@H](COC(=O)CC=CCCCCCCCCCCCCCCC)CO[C@@H]1O[C@H](CO[C@H]2O[C@H](CO)[C@H](O)C(O)C2O)[C@H](O)C(O)C1O (some centres undefined) [DGDG(35:2)],collision cross section (N2) (M+NH4]+): 315 Å²
267.9,–,CCCCCCCCCCCCCCCC(=O)OCC(CO[C@@H]1O[C@@H](C(=O)O)[C@H](O)[C@H](O)[C@H]1O)OC(=O)CCCCCCCCCCCCCCC (some centres undefined) [GlcADG(16:0/16:0)],collision cross section (N2) ([M+NH4]+): 286 Å²; collision cross section (N2) ([M+Na]+): 282.6 Å²
272.7,–,CCCCCC/C=C\CCCCCCCCCC(=O)OC(COC(=O)CCCCCCCCCCCCCCC)CO[C@@H]1O[C@@H](C(=O)O)[C@H](O)[C@H](O)[C@H]1O (some centres undefined) [GlcADG(16:0/18:1)],collision cross section (N2) ([M+NH4]+): 290.1 Å²; collision cross section (N2) ([M+Na]+): 288.1 Å²
291.5,297,CCCCCCCCCCCCCCCC(=O)OCC(COP(=O)([O-])OCC(O)COC(=O)C(N)CCCC[NH3+])OC(=O)CCCCCCCCCCCCCCC (centres undefined) [LysPG(16:0/16:0)],–
–,284.7,CCCCCCCCCCCCCCC(=O)OCC(COP(=O)([O-])OCC(O)COC(=O)C(N)CCCC[NH3+])OC(=O)CCCCCCCCCCCC (centres undefined) [LysPG(28:0)],–
–,290.4,CCCCCCCCCCCCCCC(=O)OCC(COP(=O)([O-])OCC(O)COC(=O)C(N)CCCC[NH3+])OC(=O)CCCCCCCCCCCCCC (centres undefined) [LysPG(30:0)],–
–,287,CCCCCC/C=C/CCCCCCCC(=O)OCC(COP(=O)([O-])OCC(O)COC(=O)C(N)CCCC[NH3+])OC(=O)CCCCCCCCCCCCC (centres undefined) [LysPG(30:1)],–
–,293.9,CCCCCCCCCCCCCCCC(=O)OC(COC(=O)CCCCCCCCCCCCCC)COP(=O)([O-])OCC(O)COC(=O)C(N)CCCC[NH3+] (centres undefined) [LysPG(31:0)],–
–,293.5,CCCCCC/C=C/CCCCCCCC(=O)OCC(COP(=O)([O-])OCC(O)COC(=O)C(N)CCCC[NH3+])OC(=O)CCCCCCCCCCCCCCC (centres undefined) [LysPG(32:1)],–
–,290.8,CCCCCC/C=C\CCCCCCCC(=O)OCC(COP(=O)([O-])OCC(O)COC(=O)C(N)CCCC[NH3+])OC(=O)CCCCCCC/C=C\CCCCCC (centres undefined) [LysPG(32:2)],–
–,302.5,CCCCCCCCCCCCCCCCCCC(=O)OC(COC(=O)CCCCCCCCCCCCCC)COP(=O)([O-])OCC(O)COC(=O)C(N)CCCC[NH3+] (centres undefined) [LysPG(34:0)],–
–,303.5,CCCCCC/C=C\CCCCCCCCCC(=O)OCC(COP(=O)([O-])OCC(O)COC(=O)C(N)CCCC[NH3+])OC(=O)CCCCCCCCCCCCCCCC (centres undefined) [LysPG(35:1)],–
254.5,–,CCCCCCCCCCCCCCCCCCCCC(=O)O[C@H](COC(=O)CCCCCCCCCCC)COP(=O)(O)O [PA(33:0)],–
257.6,–,CCCCCCCCCCCCCCCCCCCCCC(=O)OC[C@H](COP(=O)(O)O)OC(=O)CCCCCCCCCCC [PA(34:0)],–
261,–,CCCCCCCCCCCCCCCCCCCCC(=O)O[C@H](COC(=O)CCCCCCCCCCCCC)COP(=O)(O)O [PA(35:0)],–
264.5,–,CCCCCCCCCCCCCCCCC(=O)O[C@H](COC(=O)CCCCCCCCCCCCCC)COP(=O)(O)OC[C@@H](O)CO [PG(16:0/16:0)],–
